Data as given in patent US20140163082A1, “PYRAZOLYL COMPOUNDS FOR USE IN REVERSING REACTIVE GLIOSIS” (priority 2011, published 2014).

Tests used:
[1] = tested on: preretinal NV in OIR mouse model; assay: Quantification of preretinal NV (H&E sections), OIR mouse model; format: in vivo, C57BL/6J mice; conditions: OIR mice, double intravitreal injection YC-1 100 μM, P17, n=8; DMSO 61
Protocol: (§1) Retinal NV was induced in newborn mice as described previously. Briefly, P7 mice were exposed with their nursing mother, for 5 days [between P7 and P12] to hyperoxic conditions, by incubating them in an airtight chamber [PROOX 110 chamber O2 controller; Biospherix Ltd., Redfield, N.Y.] ventilated by a mixture of O2 and air to a final oxygen fraction of 75±2%. These incubation conditions induced vaso-obliteration and subsequent cessation of vascular development in the capillary beds of the central retina. At P12, the mice were allowed to recover in normal room air conditions and maintained for another 5 days [till P17], the day in which peak disease occurs. A condition of relative hypoxia resulted between P12 and P17, and extensive retinal NV developed in 100% of the mice. […]
Quantification of preretinal NV on P17 mice was performed as previously described. Briefly, 6-μm-thick serial sections were stained with hematoxylin and Eosin (H&E), then examined and scored in masked fashion for the presence of all nuclei extending beyond the ILM into the vitreous from the retina, by using light microscopy (Zeiss Axiovert 135, Thornwood, N.Y.). Efficacy of treatment was calculated as the percentage of the average number of nuclei/section in the eyes of YC-1-treated mice vs. DMSO-treated retinas. A minimum of 10 sections at least 40 μm apart were evaluated and counted per eye and then averaged. […]

[2] = tested on: retinal vasculature in OIR mouse model; assay: Morphometric assessment of retinal vascular density (CD31 staining), OIR mouse model; format: in vivo, C57BL/6J mice; conditions: OIR mice, P17; DMSO 88, normoxic 154
Protocol: as §1
Retinas were harvested at various time points and fixed with 4% paraformaldehyde (PFA) and methanol followed by blocking in 50% FBS/20% normal goat serum for 1 hour at room temperature. […] Quantitation of PECAM/CD-31 immunostaining was processed morphometrically using Metamorph™ imaging software [Universal Imaging, Sunnyvale, Calif.] to determine the area of positive staining for YC-1-treatedt vs. control group. […] All results were expressed as meant S.E.M. Differences were considered statistically significant at **P<0.01.

[3] = tested on: R28 cells; assay: GFAP immunofluorescence, R28; format: cell-based, rat; conditions: for GFAP protein expression (immunofluorescence): vs hypoxic controls
Protocol: Cells were placed in airtight chambers [BioSpherix, Redfield, N.Y.] and the O2 tension was maintained at 1.2% by using Pro-Ox Model 110 O2 regulator [BioSpherix, Redfield, N.Y.]. The chamber was purged with a gas mixture of 5.32% CO2, and 93.48% N2. […] Müller cells [rMC-1] and […] cells [2×10^4 cells per well] were grown on 8-well chamber slides and cultured in 300 μl of their growing media, which contained YC-1 [25-100 μM] or DMSO [0.2% v/v] and incubated under normoxia or hypoxia for 48 hours at 37° C. YC-1 or DMSO was added 5 minutes prior to the hypoxic incubation. The cells were fixed 48 hours later with 3.7% paraformaldehyde and permeabilized with 0.2% TritonTM X-100 in PBS. The cells were incubated for two hours with anti-GFAP antibody. Negative control experiments consisted of omission of the primary antibody. Cells were then incubated with HRP-conjugate working solution, followed by the addition of the […] solution [TSA Kit#2 and #4 for rMC-1 and […] staining, respectively] at 1:100 dilutions [Molecular Probes, Carlsbad, Calif.]. Digitized images were acquired utilizing AxioVision software [Zeiss Axiovert 135 and AxioCam]. Intensity values of immunofluorescence staining of GFAP in rMC-1 and […] cells was analyzed and quantified using MetamorphTM imaging analysis software version 6.0 [Universal Imaging, Sunnyvale, Calif.]. The staining intensity in our series ranged from a weak blush to moderate or strong. The amount of cells staining with the antibody was further categorized as focal [<10%], patchy [10%-50%], and diffuse [>50%]. For semiquantitative analysis, focal and/or weak staining was considered equivocal staining, and patchy or diffuse staining was subcategorized as either moderate or strong.

[4] = tested on: human retinal microvascular EC; conditions: refs [16, 17, 18]; cited from earlier work
[5] = tested on: ischemic retinas of the OIR mouse model; conditions: refs [16, 18]; cited from earlier work
[6] = R28, 25 μM YC-1, hypoxia 48 hours

OCc1ccc(-c2nn(Cc3ccccc3)c3ccccc23)o1 [YC-1, 3-(5′-hydroxymethyl-2′-furyl)-1-benzylindazole]
average number of neovascular nuclei (pre-retinal, anterior to ILM) [1]: 11±1.8 | mean vascular density (endothelial cells per reticle square, CD31) [2]: 148±2 | GFAP cytoplasmic staining pattern/intensity (immunofluorescence) [3, 6]: stronger diffuse cytoplasmic GFAP staining | GFAP staining vs DMSO-treated hypoxic controls (immunofluorescence) [3, 6]: remarkable inhibition | GFAP protein expression (immunofluorescence) ([3]; R28, 50 μM YC-1, hypoxia): significant inhibitory effects | GFAP protein expression (immunofluorescence) ([3]; R28, 75 μM YC-1, hypoxia): significant inhibitory effects | GFAP staining remaining in cytoplasm (immunofluorescence) ([3]; R28, 100 μM YC-1, hypoxia): few stained regions | GFAP protein levels (quantified staining intensity, FIG. 11C) ([3]; R28, hypoxia, dose-dependent fashion): significantly reduced | HIF-1α, HIF-2α, VEGF, EPO, ET-1, and MMP-9 protein levels [4]: down-regulates | HIF-1 and other proangiogenic factors [VEGF, MMP-9, ET-1, and EPO] [5]: inhibits
